Where “and” joins values, the source holds several entries; their conditions need not be identical. Identical values can stand only once. Ends that are not written are not given here.
Key:
[1] = system: classical pathway complement activity in factor B-depleted human serum; assay: Hemolysis assay using factor-B depleted serum and antibody-sensitized sheep erythrocytes; assay type: biochemical; details: 0.77mM peptide in factor B-depleted serum; triplicate, mean; standardized to water or DMSO
Description: (§1) Soluble peptides were dissolved in water whereas insoluble peptides were reconstituted in DMSO. Results were standardized to water or DMSO, as appropriate.

[2] = system: complement activation; details: Wistar rats, delivered IV; cited from earlier work
Text: However, a serious limitation to these peptide analogs was their lack of solubility in aqueous solution. Given the aqueous solubility of PA-dPEG24, we set out to determine their efficacy in vivo.

[3] = Solubility in water; assay type: physicochemical
Description: as §1

[4] = biological target: intact C1q; design: method as in PMID 22906481; details: SPR; cited from earlier work
[5] = biological target: T1, C1 complex (C1s bound to C1q) (Homo sapiens, UniProt P02745+P02746+P02747); assay: Displacement (competition ELISA) assay of C1s from C1; assay type: binding; details: C1 0.05μg; CP from 0.145μM, PA from 1.45μM (10-fold molar excess)
T1 construct: partially purified C1 complex was added to wells at a constant amount
Description: This was performed similarly to the competitive binding assay described by Hair et al., 2010 [8], with the following differences. Plates were coated with monoclonal antibody to C1q (Quidel) at 1:1000 overnight. In blocking buffer containing 2mM CaC1_2, partially purified C1 complex was added to wells at a constant amount (0.05μg) with decreasing amounts of either CP or PA, starting with concentrations for CP at 0.145μM and 1.45μM for PA. Detection of C1q and C1s was confirmed as described by Hair et al., 2010 [8].

[6] = biological target: ficolin M (ficolin-1) (Homo sapiens, UniProt O00602); assay: ELISA, biotinylated PA binding to ficolin M; details: ficolin adsorbed at 10μg/mL, 0.4M NaCl in blocking buffer, compared with C1q
Description: (§2) Wild-type recombinant ficolins L (ficolin-2), H (ficolin-3), M (ficolin-1) were adsorbed to a microtiter plate at 10μg/mL. C1q (25nM) and BSA (30μg/mL) were immobilized as controls. Plates were blocked with 3% BSA/PBST for 2h. Biotinylated PA was added at various concentrations in blocking buffer containing 0.4M NaCl (to reduce nonspecific binding) and incubated for 1h at room temperature. Following washing, wells were probed neutravidin-HRP (1:4000) in blocking buffer for 1h and developed as described above. Absorbance values from wells not incubated with biotinylated PA were subtracted as background.

[7] = biological target: ficolin L (ficolin-2) (Homo sapiens, UniProt Q15485); assay: ELISA, biotinylated PA binding to ficolin L; details: ficolin adsorbed at 10μg/mL, 0.4M NaCl in blocking buffer, compared with C1q
Description: as §2

[8] = biological target: T2, C1q (Homo sapiens, UniProt P02745+P02746+P02747); assay: Cross-linking of biotinylated PA to C1q with BS3, SDS-PAGE/western blot; assay type: binding; details: C1q:biotinylated PA 1:25, BS3 20μM
T2 construct: Purified C1q (1μg) was added to wells
Description: Purified C1q and biotinylated PA, at a ratio of 1:25, were incubated in conjugation buffer (0.1M Na2HPO4, 0.15M NaCl, pH 8.0) at room temperature for 2.5h. The crosslinker BS^3 (Bis(sulfosuccinimidlyl) suberate, Pierce) was added to a final concentration of 20μM and the mixture was incubated for 30 min. The reaction was quenched with 1M Tris-HCl (pH 7.5) to a final concentration of […] for 15 min. Reactions were analyzed via SDS-PAGE (NU-PAGE Bis/Tris 4–12% gradient gel) and western blot using a 1:1500 dilution of streptavidin IR 680 (LiCor) for 1h, 1:2000 dilution of goat anti-C1q IgG (CompTech) for 1h and 1:10,000 dilution of donkey anti-goat IgG IR 800 (Licor) for 1h. Gels were analyzed on an Odyssey Infrared Imaging System (Licor) and identical gels were visualized with bio-safe Coomassie stain (Bio-Rad) to confirm total protein content.

[9] = biological target: ficolin H (ficolin-3) (Homo sapiens, UniProt O75636); assay: ELISA, biotinylated PA binding to ficolin H; details: ficolin adsorbed at 10μg/mL, 0.4M NaCl in blocking buffer, compared with C1q
Description: as §2

ficolin M (ficolin-1), sequence (O00602 30-326): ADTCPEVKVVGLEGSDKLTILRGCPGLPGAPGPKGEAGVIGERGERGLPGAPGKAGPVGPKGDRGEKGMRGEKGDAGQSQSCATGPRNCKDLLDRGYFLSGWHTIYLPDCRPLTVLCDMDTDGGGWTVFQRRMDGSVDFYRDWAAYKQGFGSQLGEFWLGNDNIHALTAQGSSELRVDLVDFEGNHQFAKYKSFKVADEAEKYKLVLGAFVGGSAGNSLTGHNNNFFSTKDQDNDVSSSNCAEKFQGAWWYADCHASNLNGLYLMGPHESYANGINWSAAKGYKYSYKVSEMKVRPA
ficolin H (ficolin-3), sequence (O75636 24-299): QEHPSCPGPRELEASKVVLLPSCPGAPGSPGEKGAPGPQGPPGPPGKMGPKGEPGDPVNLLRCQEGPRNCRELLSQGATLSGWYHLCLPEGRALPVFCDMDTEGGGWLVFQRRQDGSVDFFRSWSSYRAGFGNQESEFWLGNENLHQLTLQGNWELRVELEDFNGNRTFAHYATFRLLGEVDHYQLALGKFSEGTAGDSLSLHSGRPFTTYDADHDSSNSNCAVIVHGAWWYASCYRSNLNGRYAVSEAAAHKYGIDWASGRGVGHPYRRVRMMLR
T2 sequence (P02745 23-245): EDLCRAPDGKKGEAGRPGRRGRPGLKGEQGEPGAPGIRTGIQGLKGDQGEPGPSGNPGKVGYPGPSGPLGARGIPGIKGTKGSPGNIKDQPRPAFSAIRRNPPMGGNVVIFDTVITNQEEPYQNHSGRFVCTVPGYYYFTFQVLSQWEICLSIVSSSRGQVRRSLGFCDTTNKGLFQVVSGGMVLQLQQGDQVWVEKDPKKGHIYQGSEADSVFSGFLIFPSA
T2 sequence (P02746 28-253): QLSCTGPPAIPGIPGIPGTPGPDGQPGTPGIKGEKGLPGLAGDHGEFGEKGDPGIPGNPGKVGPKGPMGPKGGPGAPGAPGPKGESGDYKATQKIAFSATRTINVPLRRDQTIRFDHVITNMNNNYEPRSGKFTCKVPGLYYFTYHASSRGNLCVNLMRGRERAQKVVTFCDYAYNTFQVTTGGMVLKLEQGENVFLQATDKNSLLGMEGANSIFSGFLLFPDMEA
T2 sequence (P02747 29-245): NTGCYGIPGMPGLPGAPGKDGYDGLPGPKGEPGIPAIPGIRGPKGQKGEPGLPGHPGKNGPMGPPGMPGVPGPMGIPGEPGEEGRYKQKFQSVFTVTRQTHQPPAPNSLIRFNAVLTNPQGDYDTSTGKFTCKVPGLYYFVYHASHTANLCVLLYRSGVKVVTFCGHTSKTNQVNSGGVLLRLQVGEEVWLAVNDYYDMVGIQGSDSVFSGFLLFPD
T1 sequence (P02745 23-245): as the sequence (P02745 23-245) above
T1 sequence (P02746 28-253): as the sequence (P02746 28-253) above
T1 sequence (P02747 29-245): as the sequence (P02747 29-245) above
ficolin L (ficolin-2), sequence (Q15485 26-313): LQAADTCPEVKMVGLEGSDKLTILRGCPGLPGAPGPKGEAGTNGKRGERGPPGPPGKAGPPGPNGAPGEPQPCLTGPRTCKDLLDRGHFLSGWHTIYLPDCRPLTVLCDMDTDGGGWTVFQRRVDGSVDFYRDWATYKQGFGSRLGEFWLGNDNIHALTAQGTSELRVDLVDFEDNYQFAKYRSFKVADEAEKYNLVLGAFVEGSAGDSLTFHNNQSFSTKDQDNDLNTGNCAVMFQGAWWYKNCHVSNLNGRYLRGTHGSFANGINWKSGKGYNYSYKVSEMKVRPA

Row | Molecule | Hemolysis (%) [1] | other results
1 | CC[C@H](C)[C@H](N)C(=O)N[C@@H](C)C(=O)N[C@@H](CC(C)C)C(=O)N[C@H](C(=O)N[C@@H](CC(C)C)C(=O)N[C@@H](CCC(=O)O)C(=O)N1CCC[C@H]1C(=O)N[C@H](C(=O)N[C@@H](CS)C(=O)N[C@@H](CS)C(=O)N[C@@H](CCC(N)=O)C(=O)N[C@@H](CCC(=O)O)C(=O)N[C@@H](CCCNC(=N)N)C(=O)N[C@@H](C)C(=O)N[C@@H](C)C(=O)O)[C@@H](C)CC)[C@@H](C)CC [PA] | 39.49% | inhibition of complement activation in vivo [2]: able to inhibit complement activation in Wistar rats; solubility in water / aqueous solutions [3]: lack of solubility in aqueous solutions; Kd [4]: 33.3 nM and 33 nM; displacement of C1s from C1q [5]: did not demonstrate competitive displacement of C1s from C1q
2 | EALILEPICCQERAA [PA-I1E, glutamic acid substitution peptide of PA] | 89.27% | 
3 | IAEILEPICCQERAA [PA-L3E, glutamic acid substitution peptide of PA] | 100.27% | 
4 | IALELEPICCQERAA [PA-I4E, glutamic acid substitution peptide of PA] | 92.07% | 
5 | IALIEEPICCQERAA [PA-L5E, glutamic acid substitution peptide of PA] | 94.33% | 
6 | IALILEEICCQERAA [PA-P7E, glutamic acid substitution peptide of PA] | 96.10% | 
7 | IALILEPECCQERAA [PA-I8E, glutamic acid substitution peptide of PA] | 95.74% | 
8 | IALILEPICCEERAA [PA-Q11E] | 65.60% | 
9 | IALILEPICCQEEAA [PA-R13E] | 101.99% | 
10 | IALILEPICCQERAE [PA-A15E] | 93.13% | 
11 | IALILEPICCQERAR [PA-A15R] | 44.24% | 
12 | IALILEPICCQEREA [PA-A14E] | 98.09% | 
13 | IALILEPICCQERRA [PA-A14R] | 88.65% | 
14 | IALILEPICCQRRAA [PA-E12R] | 95.83% | 
15 | IALILEPICCRERAA [PA-Q11R] | 90.87% | 
16 | IALILEPRCCQERAA [PA-I8R, arginine substitution peptide of PA] | 62.32% | 
17 | IALILERICCQERAA [PA-P7R, arginine substitution peptide of PA] | 89.85% | 
18 | IALILRPICCQERAA [PA-E6R, arginine substitution peptide of PA] | 87.59% | 
19 | IALIREPICCQERAA [PA-L5R, arginine substitution peptide of PA] | 93.40% | 
20 | IALRLEPICCQERAA [PA-I4R, arginine substitution peptide of PA] | 43.71% | 
21 | IARILEPICCQERAA [PA-L3R, arginine substitution peptide of PA] | 80.45% | 
22 | IELILEPICCQERAA [PA-A2E, glutamic acid substitution peptide of PA] | 92.24% | 
23 | IRLILEPICCQERAA [PA-A2R, arginine substitution peptide of PA] | 87.28% | 
24 | RALILEPICCQERAA [PA-I1R, arginine substitution peptide of PA] | 91.93% | 
25 | biotinylated PA: C-terminally biotinylated PA peptide (IALILEPICCQERAA-biotin; cysteine pairing not given here) |  | binding to ficolin M [6]: bound PA to the same degree as C1q; binding to ficolin L [7]: bound PA to the same degree as C1q; binding to C1q chains after cross-linking [8]: can bind monomeric chains of C1q along with the dimers A-B and C-C; binding to ficolin H [9]: bound PA to the same degree as C1q

Reference: PMC4511006 (PLoS ONE, 2015)
